The record followed here is patent publication US20140296146A1, “Thermostable Inhibitors of Activation of the Blood Clotting System Through Contact with Foreign Surfaces” (Synapse B.V., priority 2011, published 2014).

Data set [1] deals with T1, h-FXIIa (Homo sapiens, UniProt P00748).
T1 construct: purchased Enzyme Research Laboratories FXIIa 1212A
T1 sequence (P00748 373-615 limits assumed): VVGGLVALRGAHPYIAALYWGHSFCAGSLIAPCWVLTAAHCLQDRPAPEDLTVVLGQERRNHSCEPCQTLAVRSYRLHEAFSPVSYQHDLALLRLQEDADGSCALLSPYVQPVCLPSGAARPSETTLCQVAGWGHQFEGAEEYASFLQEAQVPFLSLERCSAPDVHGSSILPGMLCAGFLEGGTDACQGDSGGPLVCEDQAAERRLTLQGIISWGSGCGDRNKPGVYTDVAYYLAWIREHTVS
T1 sequence (P00748 20-372 partner limits assumed): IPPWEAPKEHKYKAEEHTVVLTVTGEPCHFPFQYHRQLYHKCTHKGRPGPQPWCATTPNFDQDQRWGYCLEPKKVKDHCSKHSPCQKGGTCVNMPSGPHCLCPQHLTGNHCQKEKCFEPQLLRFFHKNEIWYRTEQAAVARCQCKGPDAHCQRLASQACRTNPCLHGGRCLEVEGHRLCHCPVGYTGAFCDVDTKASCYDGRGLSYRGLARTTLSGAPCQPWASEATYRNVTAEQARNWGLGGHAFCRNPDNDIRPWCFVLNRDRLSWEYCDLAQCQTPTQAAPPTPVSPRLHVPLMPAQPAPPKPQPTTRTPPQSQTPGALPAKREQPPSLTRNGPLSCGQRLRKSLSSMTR
Briefly: Stability of CTI, PTI and TICA at RT and at 95° C., read as inhibition of h-FXIIa. It counts as physicochemical. On the procedure: Materials • S2302 From Chromogenic, lot # N0398718 SEQ0860, exp. date 2012-07. Water added on 7 Oct. […] On 3 Aug. […] Product code FXIIa 1212A, lot #FXIIa 2520PL. Bottle with 0.5 mg was reconstituted with 370 μl pure water. […] Buffer 4 mM NaAc, 150 mM NaCl (pH 5.3). Preparation was divided into 20 μl amounts and frozen at −80° C. • Hepes735 140 mM NaCl, 20 mM Hepes, 0.02% NaN3 (pH 7.35). • BSA5 Hepes735+5 mg/ml BSA. • CTI Prepared on 17 Dec. 2004, 0.141 mg/ml, i.e. 0.141/12028=11.7*10^−6 M (11.7 μM). One portion was thawed and divided into 3 parts. […]
Stock FXIIa was diluted 700× in BSA5. The inhibitor was diluted in BSA5 as indicated. Wells contained 70 μl diluted FXIIa (5 nM final), 70 μl inhibitor and 20 μl S2302 (475 or 462.5 μM final). The reaction was started after 5 min heating on the heating plate with S2302. Filters 405 nm and 490 nm reference. Found ΔmA/min was multiplied by 2.14 to get the figure for a 1 cm path.
The residual activity (V) was fitted against the inhibitor concentration with equation:
(§1) V=(E+(sqrt(Ê2+2*E*(Ki−I)+Î2+2*I*Ki+Kî2)−E−I−Ki)/2)*kcat*S/(Km+S)
(§2) in which E=[FXIIa], Ki is the dissociation constant, I=[Inhibitor], kcat and Km are Michaelis constants and S=[S2302].
To calculate the concentration of I the equation I=x·(x−E−Ki)/(x−E) was used. In this equation is I the calculated inhibitor concentration, x=the residual activity of FXIIa (free FXIIa), E the total FXIIa concentration (=9.33 nM), and Ki the dissociation or inhibitor constant.

The target of data set [2] is T1, h-FXIIa. In words: Effect of inhibitors on hydrolysis of S2302 by h-FXIIa. It counts as biochemical. On the procedure:
Materials • S2302 From Chromogenic, lot # N0398718 SEQ0860, exp. date 2012-07. Water added on 7 Oct. […] On 3 Aug. […] Product code FXIIa 1212A, lot #FXIIa 2520PL. Bottle with 0.5 mg was reconstituted with 370 μl pure water. […] Buffer 4 mM NaAc, 150 mM NaCl (pH 5.3). Preparation was divided into 20 μl amounts and frozen at −80° C. • Hepes735 140 mM NaCl, 20 mM Hepes, 0.02% NaN3 (pH 7.35). • BSA5 Hepes735+5 mg/ml BSA. • CTI Prepared on 17 Dec. 2004, 0.141 mg/ml, i.e. 0.141/12028=11.7*10^−6 M (11.7 μM). One portion was thawed and divided into 3 parts. Part 1 was frozen at −80° C.; part 2 was kept at RT; and part 3 was incubated 30 min at 95° C. and then kept at RT.
Stock FXIIa was diluted 700× in BSA5. The inhibitor was diluted in BSA5 as indicated. Wells contained 70 μl diluted FXIIa (5 nM final), 70 μl inhibitor and 20 μl S2302 (475 or 462.5 μM final). The reaction was started after 5 min heating on the heating plate with S2302. Filters 405 nm and 490 nm reference. Found mΔA/min was multiplied by 2.14 to get the figure for a 1 cm path.
The residual activity (V) was fitted against the PTI concentration with equation:
as §1, §2

Setting [3] is: Ki, Table 2, inhibitory activity of different polypeptides.
[4] abbreviates: ki F.XIIa (ng/ml), Before heating.

Like-named read-outs stand apart in the source and are kept apart here. Where a SMILES comes first, the peptide text is derived from it. Bridges are numbered along the chain shown (N, C = ends).

Turning to `CC[C@H](C)[C@@H]1NC(=O)[C@H](CCCNC(=N)N)NC(=O)[C@@H]2CCCN2C(=O)[C@@H](NC(=O)[C@@H](NC(=O)[C@H](CCCNC(=N)N)NC(=O)[C@H](CCC(=O)O)NC(=O)[C@H](CCC(=O)O)NC(=O)[C@@H](N)Cc2c[nH]cn2)C(C)C)CSSC[C@@H]2NC(=O)[C@H](CCC(=O)O)NC(=O)[C@H](C)NC(=O)[C@H](CC(C)C)NC(=O)[C@@H]3CSSC[C@@H](C(=O)NCC(=O)O)NC(=O)[C@H](Cc4ccc(O)cc4)NC(=O)CNC(=O)[C@H](Cc4c[nH]cn4)NC(=O)[C@H](CCC(=O)O)NC(=O)[C@H](CC(C)C)NC(=O)[C@H](CSSC[C@H](NC(=O)[C@H](CCCCN)NC(=O)[C@H](CCSC)NC(=O)[C@H](CC(C)C)NC1=O)C(=O)N[C@@H](CCCCN)C(=O)N[C@@H](CCCCN)C(=O)N[C@@H](CC(=O)O)C(=O)N[C@@H](CO)C(=O)N[C@@H](CC(=O)O)C(=O)N3)NC(=O)[C@H](C(C)C)NC2=O` [TICA3] (H-HEERVCPRILMKCKKDSDCLAECVCLEHGYCG-OH; disulfide 6-23, 13-25, 19-31 (inferred); N-terminus and C-terminus assumed), the “Res. Act. (%)” value was 103% in data set [1] (inhibitor 30 min 95° C.), 101% in data set [1] (inhibitor at RT during 72 hrs) and 100% in data set [1] (inhibitor kept at −80° C.). Further, the figures for the Ki in data set [2] (setting [3]) and in data set [2] (setting [4]) were 3090 nM and 2760 nM, respectively.

Consider `CC[C@H](C)[C@@H]1NC(=O)[C@H](CCCNC(=N)N)NC(=O)[C@@H]2CCCN2C(=O)[C@@H](NC(=O)[C@@H](NC(=O)[C@@H](N)CCCNC(=N)N)C(C)C)CSSC[C@@H]2NC(=O)[C@H](CCC(=O)O)NC(=O)[C@H](C)NC(=O)[C@H](CC(C)C)NC(=O)[C@@H]3CSSC[C@@H](C(=O)NCC(=O)N[C@@H](C)C(=O)N[C@@H](C)C(=O)N[C@@H](C)C(=O)O)NC(=O)[C@H](Cc4ccc(O)cc4)NC(=O)CNC(=O)[C@H](Cc4c[nH]cn4)NC(=O)[C@H](CCC(=O)O)NC(=O)[C@H](CC(C)C)NC(=O)[C@H](CSSC[C@H](NC(=O)[C@H](CCCCN)NC(=O)[C@H](CCSC)NC(=O)[C@H](CC(C)C)NC1=O)C(=O)N[C@@H](CCCCN)C(=O)N[C@@H](CCCCN)C(=O)N[C@@H](CC(=O)O)C(=O)N[C@@H](CO)C(=O)N[C@@H](CC(=O)O)C(=O)N3)NC(=O)[C@H](C(C)C)NC2=O` [TICA1-AAA] (H-RVCPRILMKCKKDSDCLAECVCLEHGYCGAAA-OH; disulfide 3-20, 10-22, 16-28), for which the Ki in data set [2] is 377 nM.

Take `CC[C@H](C)[C@@H]1NC(=O)[C@@H]2CSSC[C@H](NC(=O)[C@@H](NC(=O)[C@H](CCCNC(=N)N)NC(=O)[C@H](CCC(=O)O)NC(=O)[C@H](CCC(=O)O)NC(=O)[C@@H](N)Cc3c[nH]cn3)C(C)C)C(=O)N3CCC[C@H]3C(=O)N[C@@H](CCCCN)C(=O)N[C@@H]([C@@H](C)CC)C(=O)N[C@@H](CC(C)C)C(=O)N[C@@H](CCSC)C(=O)N[C@@H](CCC(=O)O)C(=O)N[C@H]3CSSC[C@H](NC1=O)C(=O)N[C@@H](CC(C)C)C(=O)N[C@@H](CCC(=O)O)C(=O)N[C@@H](Cc1c[nH]cn1)C(=O)NCC(=O)N[C@@H](Cc1ccc(O)cc1)C(=O)N[C@H](C(=O)NCC(=O)O)CSSC[C@H](NC(=O)[C@H](CC(=O)O)NC(=O)[C@H](CO)NC(=O)[C@H](CC(=O)O)NC(=O)[C@H](CCCCN)NC(=O)[C@H](CCCCN)NC3=O)C(=O)N[C@@H](CC(C)C)C(=O)N[C@@H](C)C(=O)N[C@@H](CCC(=O)O)C(=O)N2` [TICA5] (H-HEERVCPKILMECKKDSDCLAECICLEHGYCG-OH; disulfide 6-23, 13-25, 19-31 (inferred); N-terminus and C-terminus assumed): the figures for the “Res. Act. (%)” value in data set [1] (inhibitor 30 min 95° C.), in data set [1] (inhibitor at RT during 72 hrs) and in data set [1] (inhibitor kept at −80° C.) were 105%, 96% and 100%, respectively. The Ki in data set [2] (setting [3]) is 171000 nM; in data set [2] (setting [4]) it was 152000 nM.

In the case of `CC[C@H](C)[C@@H]1NC(=O)[C@H](CCCNC(=N)N)NC(=O)[C@@H]2CCCN2C(=O)[C@@H](NC(=O)[C@@H](NC(=O)[C@H](CCCNC(=N)N)NC(=O)[C@H](C)NC(=O)[C@H](C)NC(=O)[C@H](C)N)C(C)C)CSSC[C@@H]2NC(=O)[C@H](CCC(=O)O)NC(=O)[C@H](C)NC(=O)[C@H](CC(C)C)NC(=O)[C@@H]3CSSC[C@@H](C(=O)NCC(=O)O)NC(=O)[C@H](Cc4ccc(O)cc4)NC(=O)CNC(=O)[C@H](Cc4c[nH]cn4)NC(=O)[C@H](CCC(=O)O)NC(=O)[C@H](CC(C)C)NC(=O)[C@H](CSSC[C@H](NC(=O)[C@H](CCCCN)NC(=O)[C@H](CCSC)NC(=O)[C@H](CC(C)C)NC1=O)C(=O)N[C@@H](CCCCN)C(=O)N[C@@H](CCCCN)C(=O)N[C@@H](CC(=O)O)C(=O)N[C@@H](CO)C(=O)N[C@@H](CC(=O)O)C(=O)N3)NC(=O)[C@H](C(C)C)NC2=O` [AAA-TICA1] (H-AAARVCPRILMKCKKDSDCLAECVCLEHGYCG-OH; disulfide 6-23, 13-25, 19-31), the affinity in data set [2] corresponds to a Ki of 104 nM.

In general, Ki refers to the dissociation constant of the complex between target and ligand, obtained from inhibition or displacement. A lower Ki goes with a stronger hold on the target.
